Like-named read-outs stand apart in the source and are kept apart here.
Legend:
[1] = molecular target: T1, Wee1A kinase (CDK1 Tyr15 phosphorylation in ACHN renal cell carcinoma cells) (Homo sapiens, UniProt P30291); test: High-content imaging of pCdk1 Y15, Wee1A kinase target engagement in ACHN cells; type: cell-based
T1 construct: pCDK1 Tyr15 immunofluorescence read-out
Method in brief: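 EC50 values come from the per-well fraction of cells with nuclear pCdk1 Y15 staining, normalised to DMSO control, by automated immunofluorescence imaging. Cells were ACHN renal carcinoma, treated 4 h with compound at 7–5,000 nM or 0.3–200 nM.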

[2] = molecular target: T2, Myt1 kinase (recombinant PMYT-1) (Homo sapiens, UniProt Q99640); test: Myt1 kinase binding assay (LanthaScreen Eu Kinase Binding Assay)
T2 construct: full length PMYT-1 was expressed by baculovirus in insect cells; purchased Invitrogen A30984; host or cells: insect cells (baculovirus)
T2 sequence (Q99640 1-499): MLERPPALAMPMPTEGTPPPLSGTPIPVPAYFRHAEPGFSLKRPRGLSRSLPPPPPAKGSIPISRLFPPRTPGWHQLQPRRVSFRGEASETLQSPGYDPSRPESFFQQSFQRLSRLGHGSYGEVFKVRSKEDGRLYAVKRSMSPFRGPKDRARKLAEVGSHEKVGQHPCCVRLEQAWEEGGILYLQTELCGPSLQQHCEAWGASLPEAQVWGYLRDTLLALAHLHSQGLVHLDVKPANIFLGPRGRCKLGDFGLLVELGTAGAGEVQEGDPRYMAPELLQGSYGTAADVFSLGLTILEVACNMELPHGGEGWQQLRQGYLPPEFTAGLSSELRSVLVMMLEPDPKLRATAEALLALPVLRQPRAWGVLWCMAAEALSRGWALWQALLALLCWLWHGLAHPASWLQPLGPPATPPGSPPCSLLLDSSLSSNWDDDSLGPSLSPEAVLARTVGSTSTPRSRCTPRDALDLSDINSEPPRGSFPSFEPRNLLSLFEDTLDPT
Method in brief: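 Compound binding to Myt1 kinase was assessed using the LanthaScreen Eu Kinase Binding Assay. This europium-based binding format was applied to quantify how strongly each compound bound to the Myt1 enzyme, and the binding affinity was reported for each compound as an IC50 value.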

[3] = tested on: ACHN cells; test: Cell Titer Glo viability assay, ACHN cells; type: cell-based; details: 144 h, absolute EC50
Description: Each of an ACHN renal cell carcinoma cell line (ATCC) and a DAOY medulloblastoma cell line, and an A427 lung cancer line were cultured in Minimum Essential Medium Eagle supplemented with 10% fetal calf serum (Sigma), 1% Penicillin-Streptomycin and 10 mM HEPES buffer (HyClone). Cell cultures were kept in a humidified incubator at 37 °C and 5% CO2. Cells were routinely tested for Mycoplasma contamination.
ACHN cells, DAOY cells, or A427 cells were seeded at a density of 400, 250, or 500 cells per well respectively, in tissue culture treated 384 well plates (Corning Costar). After overnight incubation, cells were treated with drugs at concentrations ranging from 17 to 10 000 nM. Viability compared to untreated control was assessed at 144 h using Cell Titer Glo assay 2.0 (Promega). […] “NT” means the compounds was not tested in the indicated cells.

[4] = molecular target: T3, recombinant human Wee1A kinase (Homo sapiens, UniProt P30291); test: Wee1A kinase binding assay (LanthaScreen Eu time-resolved FRET)
T3 construct: full length Wee1 kinase was expressed by baculovirus in insect cells; purchased Invitrogen PV3817; host or cells: insect cells (baculovirus)
T3 sequence (P30291 whole entry): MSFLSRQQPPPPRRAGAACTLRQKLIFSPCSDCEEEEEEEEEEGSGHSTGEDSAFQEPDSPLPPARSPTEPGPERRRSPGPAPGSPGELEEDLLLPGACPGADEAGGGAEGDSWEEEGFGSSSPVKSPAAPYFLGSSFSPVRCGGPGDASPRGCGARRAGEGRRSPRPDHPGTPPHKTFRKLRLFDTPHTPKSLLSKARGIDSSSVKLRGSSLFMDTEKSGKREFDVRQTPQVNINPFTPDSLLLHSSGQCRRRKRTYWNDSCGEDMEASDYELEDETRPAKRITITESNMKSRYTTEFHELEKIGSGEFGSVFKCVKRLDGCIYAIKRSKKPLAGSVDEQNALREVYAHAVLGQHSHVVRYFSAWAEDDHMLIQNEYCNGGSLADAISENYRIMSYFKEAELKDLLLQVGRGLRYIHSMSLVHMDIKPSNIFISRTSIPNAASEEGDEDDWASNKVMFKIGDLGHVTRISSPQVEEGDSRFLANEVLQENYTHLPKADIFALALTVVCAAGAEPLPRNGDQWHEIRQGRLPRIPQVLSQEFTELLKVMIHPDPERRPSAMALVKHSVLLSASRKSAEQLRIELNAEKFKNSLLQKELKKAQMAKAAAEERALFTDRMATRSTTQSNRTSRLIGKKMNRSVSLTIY
Method in brief: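 Full-length, baculovirus-expressed GST-tagged Wee1A (5 nM) was mixed with 2 nM Eu-anti-GST antibody, 30 nM kinase tracer 178 and compound (1% DMSO). Buffer was 50 mM HEPES pH 7.5, 10 mM MgCl2, 1 mM EGTA, 0.01% Brij-35, incubated 60 min at room temperature. TR-FRET 665/615 nm emission ratios from duplicates were curve-fitted.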

[5] = 4 h treatment, nuclear positivity for pCdk1 Y15 vs DMSO control, read-out: CDK1 Tyr15 Phosphorylation EC50
[6] = 3 nM tracer 178, 2.5 nM PMYT-1, 1 nM Eu-labeled antibody, read-out: Myt1 kinase Binding IC50
[7] = 30 nM tracer 178, 5 nM Wee1A kinase, 2 nM Eu-labeled antibody, 60 minutes at room temperature, read-out: Wee1A kinase Binding IC50
[8] = read-out: CDK1 Tyr15 Phosphorylation EC50, 4 h treatment, nuclear positivity for pCdk1 Y15 vs DMSO control

T1 sequence (P30291 whole entry): as above

SMILES	EC50 [1, 5] [nM]	IC50 [2, 6] [nM]	EC50 [3] [nM]	EC50 ([3]; Homo sapiens) [nM]	IC50 [4, 7] [nM]	EC50 [1, 8] [nM]	IC50 [4] [nM]	IC50 ([2]; Myt1 kinase Binding IC50, 3 nM tracer 178, 2.5 nM PMYT-1, 1 nM Eu-labeled antibody) [nM]
C=CCn1c(=O)c2cnc(Nc3ccc4c(cnn4CC(C)C)c3)nc2n1-c1cccc(OC2CCNCC2)n1 [Compound 356, 2-allyl-6-((1-isobutyl-1H-indazol-5-yl)amino)-1-(6-(piperidin-4-yloxy)pyridin-2-yl)-1,2-dihydro-3H-pyrazolo[3,4-d]pyrimidin-3-one]	< 100	< 20			< 10			
C=CCn1c(=O)c2cnc(Nc3ccc4c(cnn4C(C)C)c3)nc2n1-c1ccnc(OC2CCNCC2)n1 [Compound 375, 2-allyl-6-((1-isopropyl-1H-indazol-5-yl)amino)-1-(2-(piperidin-4-yloxy)pyrimidin-4-yl)-1,2-dihydro-3H-pyrazolo[3,4-d]pyrimidin-3-one]	< 100	20 to 100			< 10			
CCn1c(=O)c2cnc(Nc3ccc(-c4ccccc4)cc3)nc2n1-c1cccc(OC2CCN(C)CC2)n1 [Compound 284, 6-(4-biphenylylamino)-2-ethyl-1-[6-(1-methyl-4-piperidyloxy)-2-pyridyl]-1,2-dihydro-3H-1,2,5,7-tetraazainden-3-one]	100 to 500	< 20			< 10			
CCn1c(=O)c2cnc(Nc3cccc(-c4ccccc4)c3)nc2n1-c1cccc(OC2CCNCC2)n1 [Compound 338, 6-(3-biphenylylamino)-2-ethyl-1-[6-(4-piperidyloxy)-2-pyridyl]-1,2-dihydro-3H-1,2,5,7-tetraazainden-3-one]	> 1000	20 to 100			< 10			
C=CCn1c(=O)c2cnc(Nc3ccc(Cl)cc3)nc2n1-c1cccc(N[C@@H]2CCCNC2)n1 [Compound 166, 1-{6-[(R)-3-piperidylamino]-2-pyridyl}-2-allyl-6-(p-chlorophenylamino)-1,2-dihydro-3H-1,2,5,7-tetraazainden-3-one]	> 1000	100 to 500			< 10			
C=CCn1c(=O)c2cnc(Nc3ccc(C#N)cc3)nc2n1-c1cccc(OC2CCNCC2)n1 [Compound 300, p-{2-allyl-3-oxo-1-[6-(4-piperidyloxy)-2-pyridyl]-1,2-dihydro-3H-1,2,5,7-tetraazainden-6-ylamino}benzonitrile]	100 to 500	20 to 100			< 10			
CCn1c(=O)c2cnc(Nc3cccc(-c4cncnc4)c3)nc2n1-c1cccc(OC2CCNCC2)n1 [Compound 366, 2-ethyl-1-[6-(4-piperidyloxy)-2-pyridyl]-6-[m-(5-pyrimidinyl)phenylamino]-1,2-dihydro-3H-1,2,5,7-tetraazainden-3-one]	500 to 1000	100 to 500			< 10			
C=CCn1c(=O)c2cnc(Nc3ccc4c(cnn4C)c3)nc2n1-c1cccc(O[C@H]2CCN[C@H](C)C2)n1 (stereo in doubt) [Compound 379, 2-allyl-6-((1-methyl-1H-indazol-5-yl)amino)-1-(6-(((2R,4S)-2-methylpiperidin-4-yl)oxy)pyridin-2-yl)-1,2-dihydro-3H-pyrazolo[3,4-d]pyrimidin-3-one]	100 to 500	100 to 500			< 10			
C=CCn1c(=O)c2cnc(Nc3ccc(Cl)cc3)nc2n1-c1cccc(NC2CCNCC2)n1 [Compound 124, 2-allyl-6-((4-chlorophenyl)amino)-1-(6-(piperidin-4-ylamino)pyridin-2-yl)-1,2-dihydro-3H-pyrazolo[3,4-d]pyrimidin-3-one]	500 to 1000	20 to 100			< 10			
C=CCn1c(=O)c2cnc(Nc3ccc(Br)cc3)nc2n1-c1cccc(NC2CCNCC2)n1 [Compound 143, 6-[(4-bromophenyl)amino]-1-{6-[(piperidin-4-yl)amino]pyridin-2-yl}-2-(prop-2-en-1-yl)-1H,2H,3H-pyrazolo[3,4-d]pyrimidin-3-one]	500 to 1000	20 to 100			< 10			
C=CCn1c(=O)c2cnc(Nc3ccc4c(c3)c(C)nn4C)nc2n1-c1cccc(OC2CCNCC2)n1 [Compound 347, 2-allyl-6-((1,3-dimethyl-1H-indazol-5-yl)amino)-1-(6-(piperidin-4-yloxy)pyridin-2-yl)-1,2-dihydro-3H-pyrazolo[3,4-d]pyrimidin-3-one]	< 100	20 to 100			< 10			
CCn1c(=O)c2cnc(Nc3ccc(-c4cnn(C)c4)cc3)nc2n1-c1cccc(OC2CCNCC2)n1 [Compound 271, 2-ethyl-6-[p-(1-methyl-4-pyrazolyl)phenylamino]-1-[6-(4-piperidyloxy)-2-pyridyl]-1,2-dihydro-3H-1,2,5,7-tetraazainden-3-one]	100 to 500	< 20			< 10			

The remaining lines, values ahead:

EC50 [1, 5] [nM]	IC50 [2, 6] [nM]	EC50 [3] [nM]	EC50 ([3]; Homo sapiens) [nM]	IC50 [4, 7] [nM]	EC50 [1, 8] [nM]	IC50 [4] [nM]	IC50 ([2]; Myt1 kinase Binding IC50, 3 nM tracer 178, 2.5 nM PMYT-1, 1 nM Eu-labeled antibody) [nM]	SMILES
< 100	100 to 500	≤ 100						C=CCn1c(=O)c2cnc(Nc3ccc4ccoc4c3)nc2n1-c1cccc(OC2CCN(C)CC2)n1 [Compound 195]
< 100			100 to 500	< 10				C=CCn1c(=O)c2cnc(Nc3ccc4c(cnn4C)c3)nc2n1-c1cccc(O[C@@H]2CCCN(C)C2)n1 [Compound 331, 6-[(1-methyl-1H-indazol-5-yl)amino]-1-(6-{[(3R)-1-methylpiperidin-3-yl]oxy}pyridin-2-yl)-2-(prop-2-en-1-yl)-1H,2H,3H-pyrazolo[3,4-d]pyrimidin-3-one]
			100 to 500		< 100	< 10		CCn1c(=O)c2cnc(Nc3ccc4c(cnn4C)c3)nc2n1-c1cccc(N(C)C2CCN(C)CC2)n1 [Compound 287, 1-{6-[N-methyl(1-methyl-4-piperidyl)amino]-2-pyridyl}-2-ethyl-6-(1-methyl-1H-indazol-5-ylamino)-1,2-dihydro-3H-1,2,5,7-tetraazainden-3-one]
					100 to 500	< 10	> 500	C=CCn1c(=O)c2cnc(Nc3cnn(CCC)c3)nc2n1-c1cccc(N(C)C2CCN(C)CC2)n1 [Compound 177, 1-{6-[N-methyl(1-methyl-4-piperidyl)amino]-2-pyridyl}-2-allyl-6-(1-propyl-4-pyrazolylamino)-1,2-dihydro-3H-1,2,5,7-tetraazainden-3-one]
< 100	< 20			< 10				C=CCn1c(=O)c2cnc(Nc3ccnc(OC)c3)nc2n1-c1cccc(OC2CCN(C)CC2)n1 [Compound 263, 2-allyl-6-(2-methoxy-4-pyridylamino)-1-[6-(1-methyl-4-piperidyloxy)-2-pyridyl]-1,2-dihydro-3H-1,2,5,7-tetraazainden-3-one]
100 to 500	20 to 100			< 10				C=CCn1c(=O)c2cnc(Nc3ccc4ncnn4c3)nc2n1-c1cccc(OC2CCN(C)CC2)n1 [Compound 249, 2-allyl-6-(1,3,3a-triaza-5-indenylamino)-1-[6-(1-methyl-4-piperidyloxy)-2-pyridyl]-1,2-dihydro-3H-1,2,5,7-tetraazainden-3-one]
< 100	20 to 100			< 10				C=CCn1c(=O)c2cnc(Nc3ccc(F)cc3)nc2n1-c1cccc(OC2CCCN(C)CC2)n1 (single isomer, unassigned) [Compound 351]
